The values below are quoted from earlier work in US11311608B2, “Methods for treating breast and other cancers by targeting argininosuccinate synthetase 1-deficiency” (CITY OF HOPE, priority 2013, dated 2022).

The conditions of this data set: versus arginase.

On to Arginine deiminase, for which the “effectiveness at depleting arginine from the environment relative to arginase” value was 300 fold.
